Assays:
[1] = system: bone resorption (metaphyseal BMD); assay: Growing rat model adapted from the Schenk assay: BMD of proximal tibial metaphysis by DXA; type: in vivo; details: growing male Sprague Dawley rats, s.c. daily for 7 days
Description: The antiresorptive potency of OX14 was measured by its effect on increasing BMD compared to ALN, ZOL, RIS, and MIN in a growing rat model adapted from the Schenk assay.26, 27 These studies were performed at the Procter & Gamble Health Sciences Center, Mason, OH, USA from 2007 to 2010, as part of the program of screening new bisphosphonates. Male Sprague Dawley rats (6 weeks old, weighing 120 to 150 g) were randomized into groups (n = 6) based on body weight. All groups received treatment by subcutaneous (s.c.) injection at the same time daily for 7 days. The first treatment was on day 0, and the last treatment on day 6, with animals euthanized by cervical dislocation on day 7. BMD of the proximal metaphysis of the right tibia was analyzed using dual‐energy X‐ray analysis (DXA) using a Hologic QDR‐4500 densitometer (Hologic, Inc., Waltham, MA, USA). Efficacy of each bisphosphonate was expressed as percentage change from the vehicle control group. The dose that increased BMD 20% greater than the control was determined via a logistic dose‐response relationship (SAS Institute, Inc., Cary, NC, USA), which estimates an efficacy value using animals in the study, and for comparison of bisphosphonates across studies. Data from compounds run in multiple studies was averaged.

[2] = system: bone (BV/TV, osteoclasts, osteoblasts); assay: In vivo OX14 dose response study in non-tumor-bearing mice (µCT and histomorphometry of tibias); set-up: species or system C57BL/6J mice
Description: Tibias were then assessed by μCT and histological analyzes as described below (see Assessment of bone integrity). […] Bruker) and analyzed using CTAn (v. 1.12; Bruker). The number and area of cortical bone lesions (pixels^2) were assessed by taking the μCT datasets, removing the trabecular bone and then volume-rendering the datasets to create 3D models using […] (version 1.0; ANUVizlab, Canberra, Australia), followed by analysis of three different sides of the bone using ImageJ software (version 1.47; NIH, Bethesda, MD, USA; https://imagej.nih.gov/ij/). After decalcification, wax embedding, and sectioning of the tibias, the numbers of osteoclasts (following tartrate-resistant acid phosphatase [TRAP] staining) were assessed using OsteoMeasure Advanced Bone Histomorphometry Video System (Osteometrics, Inc., Decatur, GA, USA) and standard histomorphometric methods.28

[3] = Mineral binding affinity: elution from hydroxyapatite (HAP) columns by FPLC; type: physicochemical; details: HAP column, mean ± SE
[4] = system: experimentally induced inflammatory colitis; set-up: method as in earlier work; details: cited from earlier work
[5] = Adverse side effects observed across all in vivo studies; set-up: species or system rats and mice
Description: Sprague Dawley rats, C57BL/6J and NOD/SCID‐γ (NSG, NOD.Cg‐Prkdcscid Il2rgtm1Wjl/SzJ) mice were purchased from Charles River Laboratories (Wilmington, MA, USA/Margate, UK). All animals were housed in cages under standard conditions (12‐hour light/dark cycle). NSG mice were housed in specific‐pathogen‐free conditions. All animals were healthy and pathogen‐free at the start of each study and once each study had commenced they were monitored daily for any unexpected adverse effects. […] Similar calculations were used to determine group numbers in non–tumor‐bearing animals based on previously observed changes in bone (BMD or trabecular bone fraction [BV/TV]).

[6] = system: JJN3 myeloma cells in NSG mice; assay: JJN3-NSG murine model of myeloma-induced bone disease; type: in vivo; details: for Osteoclast number (cortico-endosteal surface) / Cortical bone lesions by μCT / Osteolytic disease by μCT / Tumor burden by flow cytometric analysis of femoral bone marrow flushes / BV/TV by μCT: ZOL 28.4, OX14 23 µg P/kg s.c. 2×/week; for Osteoclast number (cortico-endosteal surface): tumor mice; for Cortical bone lesions by μCT / Osteolytic disease by μCT / BV/TV by μCT: vs tumor control; for BV/TV by μCT: tumor-bearing mice
Description: Female NSG mice (7 to 8 weeks old, weighing 19 to 23 g) were randomized based on weight into four groups (n = 8/group). Group 1 was a non–tumor‐bearing control group (naive). Groups 2 to 4 were injected via the tail vein with 1 × 10^6 JJN3 cells and then treated twice a week s.c. from the time of tumor cell injection for the duration of the study with vehicle control (PBS, group 2), ZOL (28.4 µg P/kg, group 3), or OX14 (23 µg P/kg, group 4). At the first signs of morbidity (after 3 weeks) all animals were anesthetized ([…] and 2% oxygen by inhalation) for cardiac bleeding and euthanized by cervical dislocation. Bone disease and tumor burden were assessed as described below (see Analysis of tumour burden).
At euthanasia, the right tibias were dissected free of soft tissue and fixed in 10% formalin before µCT analysis was used to measure the percentage of BV/TV. Tibias were scanned on a Skyscan 1272 (Bruker, Kontich, Belgium) at 4.3 μm with a 0.7‐degree rotation step, reconstructed using NRecon (v. 1.6.9.4; Bruker) and analyzed using CTAn (v. 1.12; Bruker). The number and area of cortical bone lesions (pixels^2) were assessed by taking the µCT datasets, removing the trabecular bone and then volume‐rendering the datasets to create 3D models using Drishti (version 1.0; ANUVizlab, Canberra, Australia), followed by analysis of three different sides of the bone using ImageJ software (version 1.47; NIH, Bethesda, MD, USA; https://imagej.nih.gov/ij/). After decalcification, wax embedding, and sectioning of the tibias, the numbers of osteoclasts (following tartrate‐resistant acid phosphatase [TRAP] staining) were assessed using OsteoMeasure Advanced Bone Histomorphometry Video System (Osteometrics, Inc., Decatur, GA, USA) and standard histomorphometric methods.28
Tumor burden was assessed on sections of tibias that had been stained with hematoxylin and eosin, where the distinct morphology of the myeloma cells distinguishes them from normal marrow. The proportion of bone marrow occupied by the myeloma cells was assessed using OsteoMeasure and expressed as a percentage of the whole bone section area as described.22 Tumor burden was also assessed in bone marrow flushes of the left femora by flow cytometry using an anti‐human HLA‐ABC‐APC antibody and an isotype‐matched control (R&D Systems, Minneapolis, MN, USA) as described.29, 30

[7] = Short-term (24-hour) skeletal retention based on urinary excretion after i.v. dosing; type: in vivo, Sprague Dawley rats; details: for Percentage of the dose excreted in urine over 24 hours / Skeletal retention (% of administered dose): rats, i.v.; for Percentage of the dose excreted in urine over 24 hours: 0 to 24 hours, mean ± standard deviation, averaged from all studies; for Skeletal retention (% of administered dose): calculated as dose administered minus urinary excretion over 24 hours

Row | Structure (SMILES) | Dose required to increase BMD by 20% greater than control [1] [μg P/kg] | HAP affinity (mean retention time/min) [3] [min] | Osteoclast number (cortico-endosteal surface) [6] | Cortical bone lesions by μCT [6] | Osteolytic disease by μCT [6] | Tumor burden by flow cytometric analysis of femoral bone marrow flushes ([6]; vs tumor control (JJN3)) | BV/TV by μCT [6] | Percentage of the dose excreted in urine over 24 hours [7] | Skeletal retention (% of administered dose) [7] | other results
1 | NCCCC(O)(P(=O)(O)O)P(=O)(O)O [Alendronate, alendronate] | 1.52 | – | – | – | – | – | – | – | – | –
2 | O=P(O)(O)C(F)(Cc1cnc2ccccn12)P(=O)(O)O [OX14, 1‐fluoro‐2‐(imidazo‐[1,2‐α]pyridin‐3‐yl)‐ethyl‐bisphosphonate] | 0.30 | 6.17 ± 0.08 | significant reduction in osteoclast number | significantly reduced | prevented the osteolytic disease | no significant reduction in tumor burden | significantly higher | 52.85% ± 3.82 | 47.15 ± 3.82 % of administered dose | BV/TV by μCT ([2]; OX14 23 µg P/kg s.c. 2×/week, 3 weeks, vs vehicle): increased BV/TV; BV/TV by μCT ([2]; OX14 2.3 and 0.23 µg P/kg s.c. 2×/week, 3 weeks, vs vehicle): not significantly different from the vehicle control group; Osteoclast perimeter on the trabecular bone perimeter ([2]; OX14 2.3 and 0.23 µg P/kg, vs vehicle control): neither of the lower doses of OX14 produced significant reductions; Prevention of experimentally induced inflammatory colitis [4]: effectiveness in preventing experimentally induced inflammatory colitis; Adverse side effects (loss or gain of weight, liver toxicity, or death) [5]: no adverse side effects; Tumor burden (overall statement) ([6]; OX14 23 µg P/kg s.c. 2×/week): not to reduce tumor burden
3 | O=P(O)(O)C(O)(Cc1cccnc1)P(=O)(O)O [Risedronate, risedronate] | 0.45 | 9.97 ± 0.18 | – | – | – | – | – | 34.91% ± 9.3 | 65.1 ± 9.31 % of administered dose | % excretion (urine, 24 h) ([7]; RIS co-dosed with MIN or OX14): 32.5 ± 0.1%; % excretion (urine, 24 h) ([7]; RIS co-dosed with equal or greater amounts of ALN or ZOL): 43.2 ± 2.6%; % excretion (urine, 24 h) ([7]; RIS dose 0.1 mg): 38.1 ± 5.6%; % excretion (urine, 24 h) ([7]; RIS dose 0.5 mg): 45.1 ± 1.0%; % excretion (urine, 24 h) ([7]; RIS dose 1 mg): 43.0 ± 1.8%
4 | O=P(O)(O)C(O)(Cn1ccnc1)P(=O)(O)O [Zoledronate, zoledronate] | 0.08 | 12.53 ± 0.1 | significant reduction in osteoclast number | significantly reduced | prevented the osteolytic disease | no significant reduction in tumor burden | significantly higher | 27.95% ± 3.18 | 72.05 ± 3.18 % of administered dose | Number of osteoblasts on the trabecular bone surface ([2]; ZOL 28.4 µg P/kg s.c. 2×/week, 3 weeks, vs vehicle): significant reduction in osteoblasts; Tumor burden by histological analysis of tibias ([6]; 28.4 µg P/kg ZOL s.c. 2×/week, vs tumor control (JJN3)): significant reduction in tumor burden
5 | O=P(O)(O)C(O)(Cc1cnc2ccccn12)P(=O)(O)O [Minodronate, minodronate] | 0.11 | 10.33 ± 0.18 | – | – | – | – | – | 44.80% ± 1.6 | 55.2 ± 1.6 % of administered dose | –
